From PubChem BioAssay AID248 (DTP/NCI, 2004)
Several values for one entry are separate records, joined by “and”; a condition that tells them apart may be missing. Equal entries are not always repeated. Toxic doses and inconclusive results are not listed. No stated cut-off is given here; in the data, active means T/C of 150% or more; inactive means T/C below 125%. Peptide text beside a SMILES is read from it. * marks the point of attachment. Cbz = O=C(OCc1ccccc1)*; Bn = c1ccc(C*)cc1

Tested on: L1210 leukemia ip in BDF1 mice, survival T/C
Experiment: NCI In Vivo Anticancer Drug Screen. Data for tumor model L1210 Leukemia (intraperitoneal) in B6D2F1 (BDF1) mice
Conditions: higher = longer survival
Procedure, shortened: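 Mice bearing the transplanted tumor received compound or vehicle. Survival of the treated group was divided by that of the vehicle-treated control group to give the ratio.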

[1] = endpoint: mean survival time, dose: 100.0 mg/kg/injection, schedule: Q01DX009 (ip), vehicle: Klucel (hydroxypropylcellulose) (HPC)
[2] = endpoint: mean survival time, dose: 100.0 mg/kg/injection, schedule: Q04DX003 (ip), vehicle: Klucel (hydroxypropylcellulose) (HPC)
[3] = endpoint: mean survival time, dose: 200.0 mg/kg/injection, schedule: Q01DX009 (ip), vehicle: Klucel (hydroxypropylcellulose) (HPC)
[4] = endpoint: mean survival time, dose: 200.0 mg/kg/injection, schedule: Q04DX003 (ip), vehicle: Klucel (hydroxypropylcellulose) (HPC)
[5] = endpoint: mean survival time, dose: 400.0 mg/kg/injection, schedule: Q01DX009 (ip), vehicle: Klucel (hydroxypropylcellulose) (HPC)
[6] = endpoint: mean survival time, dose: 400.0 mg/kg/injection, schedule: Q04DX003 (ip), vehicle: Klucel (hydroxypropylcellulose) (HPC)
[7] = endpoint: mean survival time, dose: 100.0 mg/kg/injection, schedule: Q04DX002 (ip), vehicle: Klucel (hydroxypropylcellulose) (HPC)
[8] = endpoint: mean survival time, dose: 100.0 mg/kg/injection, schedule: Q01DX001 (ip), vehicle: saline
[9] = endpoint: mean survival time, dose: 200.0 mg/kg/injection, schedule: Q01DX001 (ip), vehicle: saline
[10] = endpoint: mean survival time, dose: 200.0 mg/kg/injection, schedule: Q04DX002 (ip), vehicle: Klucel (hydroxypropylcellulose) (HPC)
[11] = endpoint: mean survival time, dose: 400.0 mg/kg/injection, schedule: Q04DX002 (ip), vehicle: Klucel (hydroxypropylcellulose) (HPC)
[12] = endpoint: mean survival time, dose: 100.0 mg/kg/injection, schedule: Q01DX009 (ip), vehicle: saline with Tween-80

Measured: T/C

Cc1noc(C)c1CC1(Cc2c(C)noc2C)C(=O)CCC2(C)CCCC=C21 (centres undefined)
inactive: [1] 92 % of control | [2] 95 % of control | [3] 98 % of control | [4] 93 % of control | [5] 97 % of control | [6] 96 % of control

COc1ccc(OC)c(NC(=O)CCl)c1
inactive: endpoint: mean survival time, dose: 25.0 mg/kg/injection, schedule: Q01DX009 (ip), vehicle: Klucel (hydroxypropylcellulose) (HPC) 96 % of control | endpoint: mean survival time, dose: 25.0 mg/kg/injection, schedule: Q04DX002 (ip), vehicle: Klucel (hydroxypropylcellulose) (HPC) 96 % of control | endpoint: mean survival time, dose: 50.0 mg/kg/injection, schedule: Q01DX009 (ip), vehicle: Klucel (hydroxypropylcellulose) (HPC) 98 % of control | endpoint: mean survival time, dose: 50.0 mg/kg/injection, schedule: Q04DX002 (ip), vehicle: Klucel (hydroxypropylcellulose) (HPC) 93 % of control | [1] 89 % of control and 90 % of control | [7] 93 % of control and 106 % of control

NCCCCC(N)C(=O)NCCCCCCNCCCCCCNC(=O)C(N)CCCCN (centres undefined)
inactive: endpoint: mean survival time, dose: 10.0 mg/kg/injection, schedule: Q01DX Z (ip), vehicle: saline 95 % of control | endpoint: mean survival time, dose: 30.0 mg/kg/injection, schedule: Q01DX Z (ip), vehicle: saline 95 % of control | [8] 90 % of control | endpoint: mean survival time, dose: 100.0 mg/kg/injection, schedule: Q01DX Z (ip), vehicle: saline 95 % of control | [9] 103 % of control

C1=C(c2ccccc2)N(Cc2ccccc2)C(c2ccccc2)=CN1Cc1ccccc1
inactive: endpoint: mean survival time, dose: 50.0 mg/kg/injection, schedule: Q04DX002 (ip), vehicle: saline with Tween-80 105 % of control | [7] 107 % of control | endpoint: mean survival time, dose: 100.0 mg/kg/injection, schedule: Q04DX002 (ip), vehicle: saline with Tween-80 96 % of control | [10] 96 % of control | endpoint: mean survival time, dose: 200.0 mg/kg/injection, schedule: Q04DX002 (ip), vehicle: saline with Tween-80 96 % of control | [11] 111 % of control

CC1(NO)CCCCC1
inactive: endpoint: mean survival time, dose: 100.0 mg/kg/injection, schedule: Q01DX001 (ip), vehicle: Klucel (hydroxypropylcellulose) (HPC) 100 % of control | endpoint: mean survival time, dose: 200.0 mg/kg/injection, schedule: Q01DX001 (ip), vehicle: Klucel (hydroxypropylcellulose) (HPC) 94 % of control

Cc1cccc(NC(=S)Nc2ccccc2)c1C
inactive: [7] 94 % of control | [10] 105 % of control | [11] 101 % of control

Cc1c(Cl)c(Cl)c(NS(=O)(=O)c2ccccc2)c(NS(=O)(=O)c2ccccc2)c1Cl
inactive: [1] 95 % of control | [3] 103 % of control | [5] 100 % of control

Cc1cc(C)c(O)c(CN(C)Cc2c(C)[nH]c(=O)[nH]c2=O)c1
inactive: endpoint: mean survival time, dose: 100.0 mg/kg/injection, schedule: Q01DX001 (ip), vehicle: carboxymethylcellulose (CMC) 98 % of control | endpoint: mean survival time, dose: 200.0 mg/kg/injection, schedule: Q01DX001 (ip), vehicle: carboxymethylcellulose (CMC) 91 % of control | endpoint: mean survival time, dose: 400.0 mg/kg/injection, schedule: Q01DX001 (ip), vehicle: carboxymethylcellulose (CMC) 91 % of control

NC(=O)c1ccccc1NC(=O)c1ccccc1Cl
inactive: [1] 102 % of control | [3] 100 % of control | [5] 93 % of control

CCCCCC(CN(C)C)C(=O)/C=C/c1ccc(Cl)c(Cl)c1 (centres undefined)
inactive: endpoint: mean survival time, dose: 12.5 mg/kg/injection, schedule: Q04DX003 (ip), vehicle: acetone 95 % of control | endpoint: mean survival time, dose: 25.0 mg/kg/injection, schedule: Q04DX003 (ip), vehicle: acetone 92 % of control

O=c1cc(S(=O)(=O)c2ccccc2)[nH]c(=O)[nH]1
inactive: [2] 97 % of control | [4] 101 % of control

O=C(Oc1c(Cl)cc(Cl)cc1C=Nc1cccc(C(F)(F)F)c1)c1ccccc1
inactive: endpoint: mean survival time, dose: 100.0 mg/kg/injection, schedule: Q01DX009 (ip), vehicle: other 101 % of control | endpoint: mean survival time, dose: 200.0 mg/kg/injection, schedule: Q01DX009 (ip), vehicle: other 101 % of control | endpoint: mean survival time, dose: 400.0 mg/kg/injection, schedule: Q01DX009 (ip), vehicle: other 101 % of control

C=C(C=O)C1CCC2=C(CCC3(C)C(C(C)CCCC(C)C)CCC23C)C1(C)CCC#N (centres undefined)
inactive: endpoint: mean survival time, dose: 100.0 mg/kg/injection, schedule: Q04DX003 (ip), vehicle: saline with Tween-80 93 % of control | endpoint: mean survival time, dose: 200.0 mg/kg/injection, schedule: Q04DX003 (ip), vehicle: saline with Tween-80 96 % of control | endpoint: mean survival time, dose: 400.0 mg/kg/injection, schedule: Q04DX003 (ip), vehicle: saline with Tween-80 93 % of control

CCOC(=O)C1C(=O)C(CN(CCCl)CCCl)C(=O)C(C(=O)OCC)C1c1ccc(OC)c(OC)c1OC (centres undefined)
inactive: [1] 90 % of control | [3] 92 % of control | [5] 95 % of control

COC(=O)C(Cc1ccc(O)cc1)NC(=O)C(CSCc1ccccc1)NC(=O)OCc1ccccc1 (centres undefined) (Cbz-Cys(Bn)-Tyr-OMe; configuration not given here)
inactive: endpoint: mean survival time, dose: 100.0 mg/kg/injection, schedule: Q04DX003 (ip), vehicle: DMSO 94 % of control | endpoint: mean survival time, dose: 200.0 mg/kg/injection, schedule: Q04DX003 (ip), vehicle: DMSO 98 % of control | endpoint: mean survival time, dose: 400.0 mg/kg/injection, schedule: Q04DX003 (ip), vehicle: DMSO 91 % of control

O=C/C=C/c1ccc([N+](=O)[O-])cc1
inactive: [8] 104 % of control | [12] 98 % of control | [9] 102 % of control | endpoint: mean survival time, dose: 400.0 mg/kg/injection, schedule: Q01DX001 (ip), vehicle: saline 102 % of control

Nc1ncnc2[nH]ncc12
inactive: endpoint: mean survival time, dose: 0.94 mg/kg/injection, schedule: Q01DX Z (ip), vehicle: carboxymethylcellulose (CMC) 92 % of control | endpoint: mean survival time, dose: 1.7 mg/kg/injection, schedule: Q01DX015 (ip), vehicle: carboxymethylcellulose (CMC) 98 % of control | endpoint: mean survival time, dose: 1.88 mg/kg/injection, schedule: Q01DX Z (ip), vehicle: carboxymethylcellulose (CMC) 97 % of control | endpoint: mean survival time, dose: 2.6 mg/kg/injection, schedule: Q01DX015 (ip), vehicle: carboxymethylcellulose (CMC) 96 % of control and 99 % of control | endpoint: mean survival time, dose: 3.75 mg/kg/injection, schedule: Q01DX Z (ip), vehicle: carboxymethylcellulose (CMC) 114 % of control | endpoint: mean survival time, dose: 4.0 mg/kg/injection, schedule: Q01DX015 (ip), vehicle: carboxymethylcellulose (CMC) 107 % of control and 108 % of control | endpoint: mean survival time, dose: 6.0 mg/kg/injection, schedule: Q01DX015 (ip), vehicle: carboxymethylcellulose (CMC) 111 % of control and 114 % of control | endpoint: mean survival time, dose: 7.5 mg/kg/injection, schedule: Q01DX Z (ip), vehicle: carboxymethylcellulose (CMC) 114 % of control | endpoint: mean survival time, dose: 8.0 mg/kg/injection, schedule: Q02DX010 (ip), vehicle: carboxymethylcellulose (CMC) 109 % of control | endpoint: mean survival time, dose: 9.0 mg/kg/injection, schedule: Q01DX015 (ip), vehicle: carboxymethylcellulose (CMC) 109 % of control and 120 % of control | endpoint: mean survival time, dose: 13.0 mg/kg/injection, schedule: Q02DX010 (ip), vehicle: other 115 % of control | endpoint: mean survival time, dose: 13.5 mg/kg/injection, schedule: Q01DX015 (ip), vehicle: carboxymethylcellulose (CMC) 106 % of control | endpoint: mean survival time, dose: 20.0 mg/kg/injection, schedule: Q02DX010 (ip), vehicle: other 120 % of control | endpoint: mean survival time, dose: 25.0 mg/kg/injection, schedule: Q01DX009 (ip), vehicle: saline 106 % of control | endpoint: mean survival time, dose: 30.0 mg/kg/injection, schedule: Q02DX010 (ip), vehicle: other 115 % of control | endpoint: mean survival time, dose: 45.0 mg/kg/injection, schedule: Q02DX010 (ip), vehicle: other 121 % of control | endpoint: mean survival time, dose: 67.0 mg/kg/injection, schedule: Q02DX010 (ip), vehicle: other 91 % of control | endpoint: mean survival time, dose: 80.0 mg/kg/injection, schedule: Q01DX001 (ip), vehicle: carboxymethylcellulose (CMC) 111 % of control | endpoint: mean survival time, dose: 120.0 mg/kg/injection, schedule: Q01DX001 (ip), vehicle: carboxymethylcellulose (CMC) 103 % of control | endpoint: mean survival time, dose: 182.0 mg/kg/injection, schedule: Q01DX001 (ip), vehicle: carboxymethylcellulose (CMC) 117 % of control | endpoint: median survival time, dose: 3.0 mg/kg/injection, schedule: Q01DX009 (ip), vehicle: saline 100 % of control and 105 % of control | endpoint: median survival time, dose: 6.0 mg/kg/injection, schedule: Q01DX009 (ip), vehicle: saline 100 % of control and 111 % of control | endpoint: median survival time, dose: 12.0 mg/kg/injection, schedule: Q01DX009 (ip), vehicle: saline 112 % of control | endpoint: median survival time, dose: 24.0 mg/kg/injection, schedule: Q01DX009 (ip), vehicle: saline 100 % of control and 112 % of control

O=C(N/N=C/C1CC2C=CC1C2)c1ccncc1 (centres undefined)
inactive: endpoint: mean survival time, dose: 25.0 mg/kg/injection, schedule: Q01DX009 (ip), vehicle: saline with Tween-80 100 % of control | endpoint: mean survival time, dose: 50.0 mg/kg/injection, schedule: Q01DX009 (ip), vehicle: saline with Tween-80 102 % of control | [12] 95 % of control and 103 % of control

CC(CCNc1ccc(NCCC(C)CC(C)(C)C)cc1)CC(C)(C)C (centres undefined)
inactive: [1] 98 % of control | [2] 110 % of control | [3] 101 % of control | [4] 102 % of control | [6] 96 % of control
